Source: patent US12570639B2, “Tetrahydroquinoline derivative and medicinal use thereof” (Toray Industries, Inc., priority 2020, dated 2026)
Structures can show the parent of a compound that is named as a salt.

tested on: Human fibrosarcoma cells (HT-1080 cells); test: In vitro inhibitory action against ferroptosis (Erastin-induced cell death, Cell Counting Kit-8); type: cell-based; conditions: evaluation concentration 10 μmol/L, Erastin 3 μmol/L, 24 hours
Protocol: The inhibitory action against ferroptosis of the tetrahydroquinoline derivative (I) or a pharmaceutically acceptable salt thereof was evaluated with Human fibrosarcoma cells (HT-1080 cells), by using, as an index, the inhibitory action against the cell death induced by treatment with a ferroptosis inducer, Erastin.
HT-1080 cells (ATCC) were cultured in a mixture (hereinafter referred to as vehicle) composed of DMEM/F12 (Thermo Fisher Scientific, Inc.), a final concentration of 10% fetal bovine serum (Thermo Fisher Scientific, Inc.), and a final concentration of 1% penicillin-streptomycin solution (Nacalai Tesque, Inc.). Cells were seeded into 96-well plates (Corning Inc.) at 5×10^4 cells/well and cultured overnight.
A test compound was dissolved in DMSO, and the resulting solution was diluted in the vehicle to a final concentration of 1% DMSO and then used. […] Thirty minutes after the addition of the test compound, Erastin (Cayman Chemical Co.) diluted in the vehicle at a final concentration of 3 μmol/L was added to wells. The wells added with the test compound and Erastin were grouped as “test compound,” and the wells added with no test compound and no Erastin were grouped as “background,” and the wells added with no test compound but with Erastin were grouped as “control.” Twenty-four hours after the addition of Erastin, 5 μL of Cell Counting Kit-8 (Dojindo Laboratories) was added to each well and incubated for 4 hours, and the absorbance at 450 nm was then measured for each well (N=2). […] Ferroptosis inhibition rate (%)=[1−{(Average absorbance value at 450 nm measured when a test compound is added)−(Average absorbance value at 450 nm measured in the background)}/{(Average absorbance value at 450 nm measured in the control)−(Average absorbance value at 450 nm measured in the background)}]×100 Equation 1

Row | Structure (SMILES) | Ferroptosis inhibition rate (%)
1 | Cc1ccc2c(c1)CCC(c1ccc(C(N)=O)cc1)N2 (stereo not drawn) [Example 110, 4-(6-methyl-1,2,3,4-tetra-hydroquinolin-2-yl)benzamide] | 103.0
2 | Cc1ccc2c(c1)CCC(c1ccc(C(N)=O)cc1)N2 (stereo not drawn) [Example 111, 4-(6-methyl-1,2,3,4-tetrahydroquinolin-2-yl)benzamide] | 98.91

same assay, conditions: evaluation concentration 25 μmol/L, Erastin 3 μmol/L, 24 hours

Row | Structure (SMILES) | Ferroptosis inhibition rate (%)
3 | Nc1ccc2c(c1)CCC(c1ccccc1)N2 (stereo not drawn) [Example 64, 2-phenyl-1,2,3,4-tetrahydroquinoline-6-amine dihydrochloride] | 82.89
4 | CC(C)(C)CC(=O)Nc1ccc2c(c1)CCC(c1ccccc1)N2 (stereo not drawn) [Example 78, 3,3-dimethyl-N-(2-phenyl-1,2,3,4-tetrahydroquinolin-6-yl)butanamide] | 88.56

same assay, conditions: evaluation concentration 30 μmol/L, Erastin 3 μmol/L, 24 hours

Row | Structure (SMILES) | Ferroptosis inhibition rate (%)
5 | c1ccc2c(c1)CCC(c1cnco1)N2 (stereo not drawn) [Example 65, 5-(1,2,3,4-tetrahydroquinolin-2-yl)oxazole] | 89.25
6 | Brc1ccc2c(c1)CCC(c1ccccc1)N2 (stereo not drawn) [Example 70, 6-bromo-2-phenyl-1,2,3,4-tetrahydroquinoline] | 97.10
7 | OC1(c2ccc3c(c2)CCC(c2ccccc2)N3)COC1 (stereo not drawn) [Example 71, 3-(2-phenyl-1,2,3,4-tetrahydroquinolin-6-yl)oxetan-3-ol] | 108.9
8 | c1ccc(C2CCc3cc(N4CCCCC4)ccc3N2)cc1 (stereo not drawn) [Example 72, 2-phenyl-6-(piperidin-1-yl)-1,2,3,4-tetrahydroquinoline] | 110.6
9 | CC(C)(C)C(=O)Nc1ccc2c(c1)CCC(c1ccccc1)N2 (stereo not drawn) [Example 74, N-(2-phenyl-1,2,3,4-tetrahydroquinolin-6-yl)pivalamide] | 85.08
10 | CS(=O)(=O)Nc1ccc2c(c1)CCC(c1ccccc1)N2 (stereo not drawn) [Example 75, N-(2-phenyl-1,2,3,4-tetrahydroquinolin-6-yl)methanesulfonamide] | 110.6
11 | NC(=O)Nc1ccc2c(c1)CCC(c1ccccc1)N2 (stereo not drawn) [Example 77, 1-(2-phenyl-1,2,3,4-tetrahydroquinolin-6-yl)urea] | 101.6
12 | Clc1cccc2c1NC(c1ccccc1)CC2 (stereo not drawn) [Example 79, 8-chloro-2-phenyl-1,2,3,4-tetrahydroquinoline] | 104.4
13 | Fc1cccc2c1NC(c1ccccc1)CC2 (stereo not drawn) [Example 80, 8-fluoro-2-phenyl-1,2,3,4-tetrahydroquinoline] | 103.9
14 | CC1(c2ccccc2)CCc2ccccc2N1 (stereo not drawn) [Example 91, 2-methyl-2-phenyl-1,2,3,4-tetrahydroquinoline] | 105.2
15 | OCC1(c2ccccc2)CCc2ccccc2N1 (stereo not drawn) [Example 92, (2-phenyl-1,2,3,4-tetrahydroquinolin-2-yl)methanol] | 66.40
16 | COC(=O)C1(c2ccccc2)CCc2ccccc2N1 (stereo not drawn) [Example 93, methyl 2-phenyl-1,2,3,4-tetrahydroquinoline-2-carboxylate] | 89.78
17 | COC(=O)CC1(c2ccccc2)CCc2ccccc2N1 (stereo not drawn) [Example 94, 2-(2-phenyl-1,2,3,4-tetrahydroquinolin-2-yl)methyl acetate] | 93.68
18 | O=C1Cc2cc(C3CCc4cc(Cl)ccc4N3)ccc2N1 (stereo not drawn) [Example 95, 5-(6-chloro-2,3,4,4-tetrahydroquinolin-2-yl)indolin-2-one] | 68.84
19 | Clc1ccc2c(c1)CCC(c1cn[nH]c1)N2 (stereo not drawn) [Example 96, 6-chloro-2-(1H-pyrazol-4-yl)-1,2,3,4-tetrahydroquinoline] | 98.01
20 | Cc1ccc2c(c1)CCC(c1cn[nH]c1)N2 (stereo not drawn) [Example 97, 6-methyl-2-(1H-pyrazol-4-yl)-1,2,3,4-tetrahydroquinoline] | 83.94
21 | Fc1ccc2c(c1)CCC(c1cn[nH]c1)N2 (stereo not drawn) [Example 98, 6-fluoro-2-(1H-pyrazol-4-yl)-1,2,3,4-tetrahydroquinoline] | 98.95
22 | Cc1ccc2c(c1)CCC(c1ccc(S(N)(=O)=O)cc1)N2 (stereo not drawn) [Example 100, 4-(6-methyl-1,2,3,4-tetrahydroquinolin-2-yl)benzenesulfonamide] | 103.5

Row | Structure (SMILES) | Ferroptosis inhibition rate (%)
23 | Cc1ccc2c(c1)CCC(c1ccc3c(c1)CCC(=O)N3)N2 (stereo not drawn) [Example 101, 6-methyl-1,2,3,3′,4,4′-hexahydro-[2,6′-biquinolin]-2′(1′H)-one] | 109.6
24 | Cc1ccc2c(c1)CCC(c1ccoc1)N2 (stereo not drawn) [Example 102, 2-(furan-3-yl)-6-methyl-1,2,3,4-tetrahydroquinoline] | 77.96
25 | Cc1ccc2c(c1)CCC(c1cscn1)N2 (stereo not drawn) [Example 103, 4-(6-methyl-1,2,3,4-tetrahydroquinolin-2-yl)thiazole] | 76.76
26 | Cc1ccc2c(c1)CCC(c1cnoc1)N2 (stereo not drawn) [Example 104, 4-(6-methyl-1,2,3,4-tetrahydroquinolin-2-yl)isoxazole] | 64.65
27 | Cc1ccc2c(c1)CCC(c1ccc(S(N)(=O)=O)c(F)c1)N2 (stereo not drawn) [Example 113, 2-fluoro-4-(6-methyl-1,2,3,4-tetrahydroquinolin-2-yl)benzenesulfonamide] | 97.54
28 | Cc1ccc2c(c1)CCC(c1ccc(NS(N)(=O)=O)cc1)N2 (stereo not drawn) [Example 114, N-(4-(6-methyl-1,2,3,4-tetrahydroquinolin-2-yl)phenyl)sulfamoylamine] | 87.04
29 | O=C1NCc2cc(C3CCc4ccccc4N3)ccc21 (stereo not drawn) [Example 123, 5-(1,2,3,4-tetrahydroquinolin-2-yl)isoindolin-1-one] | 113.4
30 | O=C1NCc2cc(C3CCc4ccccc4N3)ccc21 (stereo not drawn) [Example 124, 5-(1,2,3,4-tetrahydroquinolin-2-yl)isoindolin-1-one] | 106.3
31 | O=C1CCc2cc(C3CCc4ccccc4N3)ccc2N1 (stereo not drawn) [Example 125, 1,2,3,3′,4,4′-hexahydro-[2,6′-biquinolin]-2′(1′H)-one] | 102.6
32 | O=C1CCc2cc(C3CCc4ccccc4N3)ccc2N1 (stereo not drawn) [Example 126, 1,2,3,3′,4,4′-hexahydro-[2,6′-biquinolin]-2′(1′H)-one] | 97.29
33 | CC(C)(C)NC(=O)Nc1ccc2c(c1)CCC(c1ccccc1)N2 (stereo not drawn) [Example 127, 1-(tert-butyl)-3-(2-phenyl-1,2,3,4-tetrahydroquinolin-6-yl)urea] | 87.93
34 | CC(C)(C)NC(=O)Nc1ccc2c(c1)CCC(c1ccccc1)N2 (stereo not drawn) [Example 128, 1-(tert-butyl)-3-(2-phenyl-1,2,3,4-tetrahydroquinolin-6-yl)urea] | 91.83
35 | CC(C)(C)CC(=O)Nc1ccc2c(c1)CCC(c1ccccc1)N2 (stereo not drawn) [Example 129, 3,3-dimethyl-N-(2-phenyl-1,2,3,4-tetrahydroquinolin-6-yl)butanamide] | 88.31
36 | CC(C)(C)CC(=O)Nc1ccc2c(c1)CCC(c1ccccc1)N2 (stereo not drawn) [Example 130, 3,3-dimethyl-N-(2-phenyl-1,2,3,4-tetrahydroquinolin-6-yl)butanamide] | 104.2
37 | O=C1CCc2cc(C3CCc4cc(F)ccc4N3)ccc2N1 (stereo not drawn) [Example 133, 6-fluoro-1,2,3,3′,4,4′-hexahydro-[2,6′-biquinolin]-2′(1′H)-one] | 98.54
38 | O=C1CCc2cc(C3CCc4ccc(F)cc4N3)ccc2N1 (stereo not drawn) [Example 139, 7-fluoro-1,2,3,3′,4,4′-hexahydro-[2,6′-biquinolin]-2′(1′H)-one] | 60.63
39 | N#Cc1ccc(C2CCc3ccccc3N2)cc1F (stereo not drawn) [Example 141] | 59.10
40 | NS(=O)(=O)c1ccc(C2CCc3cc(C(F)(F)F)ccc3N2)cc1 (stereo not drawn) [Example 142, 4-(6-(trifluoromethyl)-1,2,3,4-tetrahydroquinolin-2-yl)benzenesulfonamide] | 64.86

same assay, conditions: evaluation concentration 50 μmol/L, Erastin 3 μmol/L, 24 hours

Row | Structure (SMILES) | Ferroptosis inhibition rate (%)
41 | CC(=O)Nc1ccc2c(c1)CCC(c1ccccc1)N2 (stereo not drawn) [Example 73, N-(2-phenyl-1,2,3,4-tetrahydroquinolin-6-yl)acetamide] | 88.18
42 | CC(C)(C)NC(=O)Nc1ccc2c(c1)CCC(c1ccccc1)N2 (stereo not drawn) [Example 76, 1-(tert-butyl)-3-(2-phenyl-1,2,3,4-tetrahydroquinolin-6-yl)urea] | 85.43
43 | FC(F)(F)c1ccc2c(c1)CCC(c1ccccc1)N2 (stereo not drawn) [Example 84, 2-phenyl-6-(trifluoromethyl)-1,2,3,4-tetrahydroquinoline] | 107.1
44 | Fc1cc(F)c2c(c1)CCC(c1ccccc1)N2 (stereo not drawn) [Example 86, 6,8-difluoro-2-phenyl-1,2,3,4-tetrahydroquinoline] | 98.80
45 | CC(C)(C)NC(=O)Nc1ccc2c(c1)CCC(c1ccc(C(N)=O)cc1)N2 (stereo not drawn) [Example 87, 4-(6-(3-(tert-butyl)ureido)-1,2,3,4-tetrahydroquinolin-2-yl)benzamide] | 95.20
